These results are taken from publication PMC7409368 (Free radical biology & medicine, 2018).

In this test the target is T1, Drosophila MSRA (Drosophila melanogaster, UniProt P08761, C232S/C246S).
T1 sequence (P08761 2-246 C232S/C246S): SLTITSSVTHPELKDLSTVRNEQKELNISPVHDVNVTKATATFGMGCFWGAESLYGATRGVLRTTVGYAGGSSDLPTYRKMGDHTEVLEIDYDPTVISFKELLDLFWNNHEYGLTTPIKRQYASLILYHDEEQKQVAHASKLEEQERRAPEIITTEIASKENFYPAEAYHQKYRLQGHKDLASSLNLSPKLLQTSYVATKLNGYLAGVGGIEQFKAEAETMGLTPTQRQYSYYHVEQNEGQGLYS
The experiment in a line: intact protein mass spectrometry after incubation with MetO. The class given is biochemical. The following applies: no dithiothreitol; oxidation of active site cysteine.

In the case of `C[S+]([O-])CC[C@H](N)C(=O)O` (stereo partly drawn) [MetO, L-Methionine Sulfoxide], the “intact protein mass spectrometry after incubation with MetO” value is reported as “when the C232S/C246S mutant was incubated with MetO, we observed that the mass”.
